{"source": "paper PMC3599939", "about": "(BMC Infectious Diseases, 2013)", "test_system": "influenza virus neuraminidase (NA)", "type": "biochemical"}
{"smiles": "CCOC(=O)C1=C[C@@H](OC(CC)CC)[C@H](NC(C)=O)[C@@H](N)C1", "note": "[Oseltamivir, oseltamivir]", "values": [{"measurement": "Phenotype (S/R)", "result": "R and S"}, {"measurement": "sensitivity of viruses to Oseltamivir", "result": "sensitive"}]}
